Results on 13 molecules are retold here after ChEMBL document CHEMBL5543164 (J Med Chem, 2024).

Data set [1] has as its target T1, Phosphatidylinositol 4,5-bisphosphate 3-kinase catalytic subunit delta isoform (Homo sapiens, UniProt O00329).
T1 sequence (O00329 whole entry): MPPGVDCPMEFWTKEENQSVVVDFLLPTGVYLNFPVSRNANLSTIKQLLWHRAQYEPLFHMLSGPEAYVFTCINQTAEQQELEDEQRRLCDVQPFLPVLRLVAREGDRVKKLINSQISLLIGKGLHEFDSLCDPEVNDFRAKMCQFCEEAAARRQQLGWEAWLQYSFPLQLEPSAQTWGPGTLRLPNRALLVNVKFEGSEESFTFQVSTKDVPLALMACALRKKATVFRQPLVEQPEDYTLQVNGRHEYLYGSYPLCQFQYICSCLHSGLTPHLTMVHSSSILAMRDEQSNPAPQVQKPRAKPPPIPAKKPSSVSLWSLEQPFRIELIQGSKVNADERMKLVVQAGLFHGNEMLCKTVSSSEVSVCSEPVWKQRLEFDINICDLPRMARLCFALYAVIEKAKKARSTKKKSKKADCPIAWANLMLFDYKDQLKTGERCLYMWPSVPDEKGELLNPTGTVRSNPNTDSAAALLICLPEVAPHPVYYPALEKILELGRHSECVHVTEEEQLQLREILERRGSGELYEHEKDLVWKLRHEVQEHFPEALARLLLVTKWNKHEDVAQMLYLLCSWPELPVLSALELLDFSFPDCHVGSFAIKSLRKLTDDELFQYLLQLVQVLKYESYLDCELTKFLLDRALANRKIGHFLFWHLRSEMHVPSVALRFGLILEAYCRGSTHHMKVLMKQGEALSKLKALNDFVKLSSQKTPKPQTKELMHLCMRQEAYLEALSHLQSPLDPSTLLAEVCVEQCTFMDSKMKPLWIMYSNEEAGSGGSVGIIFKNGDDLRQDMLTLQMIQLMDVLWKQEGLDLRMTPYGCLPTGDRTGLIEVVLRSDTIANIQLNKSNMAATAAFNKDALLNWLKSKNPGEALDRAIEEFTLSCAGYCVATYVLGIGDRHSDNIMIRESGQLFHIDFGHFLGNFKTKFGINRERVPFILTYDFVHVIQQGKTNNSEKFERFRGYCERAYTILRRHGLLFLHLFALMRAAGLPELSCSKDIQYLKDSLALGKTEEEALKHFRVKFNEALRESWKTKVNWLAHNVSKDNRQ

The target of data set [2] is Phosphatidylinositol 4,5-bisphosphate 3-kinase catalytic subunit beta isoform (Homo sapiens, UniProt P42338).
Sequence of Phosphatidylinositol 4,5-bisphosphate 3-kinase catalytic subunit beta isoform (P42338 whole entry, canonical isoform): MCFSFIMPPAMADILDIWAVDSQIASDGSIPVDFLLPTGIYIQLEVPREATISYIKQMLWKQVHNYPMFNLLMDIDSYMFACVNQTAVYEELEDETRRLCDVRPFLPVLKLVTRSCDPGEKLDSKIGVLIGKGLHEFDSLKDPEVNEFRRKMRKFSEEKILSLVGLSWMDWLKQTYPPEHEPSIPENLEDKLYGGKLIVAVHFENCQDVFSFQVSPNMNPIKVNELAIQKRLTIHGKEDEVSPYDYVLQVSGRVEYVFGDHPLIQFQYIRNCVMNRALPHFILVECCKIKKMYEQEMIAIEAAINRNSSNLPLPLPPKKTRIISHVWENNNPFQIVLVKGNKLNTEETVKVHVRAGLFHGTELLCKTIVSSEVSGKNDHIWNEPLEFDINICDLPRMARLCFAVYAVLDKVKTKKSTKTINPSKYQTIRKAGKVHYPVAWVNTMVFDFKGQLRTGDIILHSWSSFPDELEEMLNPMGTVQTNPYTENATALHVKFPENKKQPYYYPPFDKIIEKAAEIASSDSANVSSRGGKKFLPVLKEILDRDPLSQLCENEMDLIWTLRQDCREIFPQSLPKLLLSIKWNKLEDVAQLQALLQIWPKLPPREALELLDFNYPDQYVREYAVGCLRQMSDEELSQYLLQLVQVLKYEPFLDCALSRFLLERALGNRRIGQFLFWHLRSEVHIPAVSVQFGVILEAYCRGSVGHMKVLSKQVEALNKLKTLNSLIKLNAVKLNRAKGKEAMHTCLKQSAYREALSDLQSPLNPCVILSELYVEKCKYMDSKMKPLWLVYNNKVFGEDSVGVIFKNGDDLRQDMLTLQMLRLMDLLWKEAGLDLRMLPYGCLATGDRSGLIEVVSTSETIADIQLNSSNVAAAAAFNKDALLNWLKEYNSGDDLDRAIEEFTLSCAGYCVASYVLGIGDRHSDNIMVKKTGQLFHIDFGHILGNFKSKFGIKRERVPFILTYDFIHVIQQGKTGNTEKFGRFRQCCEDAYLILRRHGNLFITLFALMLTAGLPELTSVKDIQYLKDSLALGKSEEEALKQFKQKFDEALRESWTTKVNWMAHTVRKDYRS
The target of data set [3] is Phosphatidylinositol 4,5-bisphosphate 3-kinase catalytic subunit gamma isoform (Homo sapiens, UniProt P48736). The data set can be described thus: Inhibition of PI3Kgamma (unknown origin) by ADP-glo plus luminescence assay. Background: ADP-Glo turns the ADP formed in a reaction into a luminescent signal.
Sequence of Phosphatidylinositol 4,5-bisphosphate 3-kinase catalytic subunit gamma isoform (P48736 whole entry, canonical isoform): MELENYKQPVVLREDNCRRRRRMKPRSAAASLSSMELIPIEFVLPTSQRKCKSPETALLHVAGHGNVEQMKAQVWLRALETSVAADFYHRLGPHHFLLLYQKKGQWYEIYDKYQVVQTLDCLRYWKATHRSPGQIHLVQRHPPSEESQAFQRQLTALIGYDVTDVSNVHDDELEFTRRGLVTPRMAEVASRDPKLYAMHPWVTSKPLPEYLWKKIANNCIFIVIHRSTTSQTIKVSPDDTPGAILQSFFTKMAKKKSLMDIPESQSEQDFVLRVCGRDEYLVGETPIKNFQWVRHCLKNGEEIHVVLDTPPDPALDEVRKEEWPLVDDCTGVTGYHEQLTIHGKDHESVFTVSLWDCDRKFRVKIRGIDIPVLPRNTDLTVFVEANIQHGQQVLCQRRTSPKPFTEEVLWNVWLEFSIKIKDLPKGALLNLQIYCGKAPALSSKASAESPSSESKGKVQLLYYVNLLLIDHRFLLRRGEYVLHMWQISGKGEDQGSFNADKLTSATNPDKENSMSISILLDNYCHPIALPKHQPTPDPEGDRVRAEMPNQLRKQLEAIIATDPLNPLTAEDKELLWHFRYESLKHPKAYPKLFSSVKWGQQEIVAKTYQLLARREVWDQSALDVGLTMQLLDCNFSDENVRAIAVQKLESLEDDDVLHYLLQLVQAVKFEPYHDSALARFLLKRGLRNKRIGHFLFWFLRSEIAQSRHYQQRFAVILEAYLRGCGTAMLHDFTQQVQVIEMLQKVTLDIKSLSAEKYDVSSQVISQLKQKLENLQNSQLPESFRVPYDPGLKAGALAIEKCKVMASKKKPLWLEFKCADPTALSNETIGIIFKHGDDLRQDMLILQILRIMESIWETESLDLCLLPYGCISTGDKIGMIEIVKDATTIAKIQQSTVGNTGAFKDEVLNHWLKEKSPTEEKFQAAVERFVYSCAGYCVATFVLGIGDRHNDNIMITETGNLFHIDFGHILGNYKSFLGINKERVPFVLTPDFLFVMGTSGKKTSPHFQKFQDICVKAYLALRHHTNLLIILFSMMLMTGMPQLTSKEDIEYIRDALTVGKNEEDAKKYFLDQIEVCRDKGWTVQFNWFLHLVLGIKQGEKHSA
Data set [4] deals with Phosphatidylinositol 4,5-bisphosphate 3-kinase catalytic subunit alpha isoform (Homo sapiens, UniProt P42336). The data set can be described thus: Inhibition of PI3Kalpha (unknown origin) by ADP-glo plus luminescence assay.
Sequence of Phosphatidylinositol 4,5-bisphosphate 3-kinase catalytic subunit alpha isoform (P42336 whole entry, canonical isoform): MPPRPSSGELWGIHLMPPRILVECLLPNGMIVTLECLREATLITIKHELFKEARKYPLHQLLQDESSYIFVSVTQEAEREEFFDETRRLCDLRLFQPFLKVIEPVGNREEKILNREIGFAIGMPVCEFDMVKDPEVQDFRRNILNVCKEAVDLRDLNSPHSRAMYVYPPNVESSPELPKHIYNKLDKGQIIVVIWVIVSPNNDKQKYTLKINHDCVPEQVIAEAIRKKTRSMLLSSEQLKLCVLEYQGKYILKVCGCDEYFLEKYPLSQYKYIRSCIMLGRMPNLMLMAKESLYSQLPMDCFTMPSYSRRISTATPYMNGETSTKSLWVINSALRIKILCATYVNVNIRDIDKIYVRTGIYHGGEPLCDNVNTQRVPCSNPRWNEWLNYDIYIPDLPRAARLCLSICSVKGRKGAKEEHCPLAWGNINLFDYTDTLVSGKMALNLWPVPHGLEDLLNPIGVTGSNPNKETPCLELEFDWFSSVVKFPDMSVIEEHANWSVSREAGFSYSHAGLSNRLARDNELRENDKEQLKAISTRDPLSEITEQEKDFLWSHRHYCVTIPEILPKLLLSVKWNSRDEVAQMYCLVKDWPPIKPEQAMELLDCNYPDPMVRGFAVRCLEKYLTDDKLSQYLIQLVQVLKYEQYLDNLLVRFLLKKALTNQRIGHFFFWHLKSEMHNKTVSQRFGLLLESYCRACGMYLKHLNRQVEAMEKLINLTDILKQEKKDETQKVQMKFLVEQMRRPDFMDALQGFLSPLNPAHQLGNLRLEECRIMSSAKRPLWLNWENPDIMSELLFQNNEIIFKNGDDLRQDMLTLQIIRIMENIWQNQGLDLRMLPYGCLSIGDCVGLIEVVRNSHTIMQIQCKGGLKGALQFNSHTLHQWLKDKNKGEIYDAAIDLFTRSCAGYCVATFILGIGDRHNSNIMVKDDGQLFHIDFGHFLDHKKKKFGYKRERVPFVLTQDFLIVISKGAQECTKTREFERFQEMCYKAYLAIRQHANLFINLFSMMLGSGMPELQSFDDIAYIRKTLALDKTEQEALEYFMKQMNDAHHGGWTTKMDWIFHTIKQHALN
Data set [5] relates to CNE-2. As to the kind of experiment: Antiproliferative activity against human CNE-2 cells assessed as inhibition of cell growth incubated for 48 hrs by CCK-8 assay. The class given is functional, cell-based. Particulars: CNE-2, 48 h. On the technique in general: Tetrazolium assays rely on reduction of a dye to a coloured formazan, in cell work by metabolically active cells.

Data set [6] concerns HepG2. As to the kind of experiment: Antiproliferative activity against human HepG2 cells assessed as inhibition of cell growth incubated for 48 hrs by CCK-8 assay. Particulars: HepG2, 48 h. It counts as functional, cell-based.
The test system of data set [7] is HeLa. As to the kind of experiment: Antiproliferative activity against human HeLa cells assessed as inhibition of cell growth incubated for 48 hrs by CCK-8 assay. It counts as functional, cell-based.
Data set [8] addresses Serine/threonine-protein kinase mTOR (Homo sapiens, UniProt P42345).
Data set [9] concerns MCF7. The data set can be described thus: Antiproliferative activity against human MCF7 cells assessed as inhibition of cell growth incubated for 48 hrs by CCK-8 assay. The class given is functional, cell-based. Particulars: MCF7, 48 h.
Data set [10] relates to MDA-MB-231. The data set can be described thus: Antiproliferative activity against human MDA-MB-231 cells assessed as inhibition of cell growth incubated for 48 hrs by CCK-8 assay. The settings on record: MDA-MB-231, 48 h. The class given is functional, cell-based.
Data set [11] deals with HCT-116. As to the kind of experiment: Antiproliferative activity against human HCT-116 cells assessed as inhibition of cell growth incubated for 48 hrs by CCK-8 assay. It counts as functional, cell-based. Particulars: HCT-116, 48 h.
The target of data set [12] is Cytochrome P450 2C19 (Homo sapiens, UniProt P33261). As to the kind of experiment: Inhibition of CYP2C19 (unknown origin). The class given is ADME.
Data set [13] has as its target Voltage-gated inwardly rectifying potassium channel KCNH2 (Homo sapiens, UniProt Q12809). The data set can be described thus: Inhibition of hERG. The class given is toxicity. (In general: Block of hERG is tested as a sign of cardiac risk.)
Data set [14] addresses Cytochrome P450 2C9 (Homo sapiens, UniProt P11712). The data set can be described thus: Inhibition of CYP2C9 (unknown origin). It counts as ADME.
Data set [15] deals with T2, Cytochrome P450 1A2 (Homo sapiens, UniProt P05177).
T2 sequence (P05177 whole entry): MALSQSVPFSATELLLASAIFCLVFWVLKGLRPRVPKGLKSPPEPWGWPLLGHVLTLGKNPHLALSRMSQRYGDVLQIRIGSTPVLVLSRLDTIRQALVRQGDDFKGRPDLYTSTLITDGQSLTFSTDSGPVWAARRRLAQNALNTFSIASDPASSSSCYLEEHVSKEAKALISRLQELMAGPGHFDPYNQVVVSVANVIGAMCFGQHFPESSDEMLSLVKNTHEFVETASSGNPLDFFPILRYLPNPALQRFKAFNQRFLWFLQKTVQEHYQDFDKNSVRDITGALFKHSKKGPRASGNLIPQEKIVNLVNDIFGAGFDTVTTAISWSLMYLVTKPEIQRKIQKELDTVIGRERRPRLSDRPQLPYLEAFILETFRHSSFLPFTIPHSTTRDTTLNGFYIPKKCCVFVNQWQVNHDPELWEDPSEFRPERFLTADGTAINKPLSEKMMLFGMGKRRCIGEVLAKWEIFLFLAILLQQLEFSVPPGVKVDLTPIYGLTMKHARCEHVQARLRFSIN
The data set can be described thus: Inhibition of CYP1A2 (unknown origin). The class given is ADME.

The target of data set [16] is Cytochrome P450 2D6 (Homo sapiens, UniProt P10635). The data set can be described thus: Inhibition of CYP2D6 (unknown origin). The class given is ADME.
Sequence of Cytochrome P450 2D6 (P10635 whole entry): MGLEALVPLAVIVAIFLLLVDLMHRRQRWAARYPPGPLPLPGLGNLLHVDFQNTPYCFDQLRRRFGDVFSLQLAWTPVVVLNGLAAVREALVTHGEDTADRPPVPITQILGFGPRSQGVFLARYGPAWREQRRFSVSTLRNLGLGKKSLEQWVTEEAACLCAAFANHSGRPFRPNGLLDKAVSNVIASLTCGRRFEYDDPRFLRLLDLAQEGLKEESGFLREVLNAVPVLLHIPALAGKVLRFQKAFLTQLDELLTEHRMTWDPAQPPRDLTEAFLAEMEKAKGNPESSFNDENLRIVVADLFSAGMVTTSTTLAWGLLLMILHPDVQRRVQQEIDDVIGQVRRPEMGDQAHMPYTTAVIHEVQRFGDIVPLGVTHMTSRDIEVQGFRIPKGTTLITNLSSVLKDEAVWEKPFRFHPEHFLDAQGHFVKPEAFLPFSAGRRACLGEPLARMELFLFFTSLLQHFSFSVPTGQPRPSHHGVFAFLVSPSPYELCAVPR
Data set [17] deals with Cytochrome P450 3A4 (Homo sapiens, UniProt P08684). As to the kind of experiment: Inhibition of CYP3A4-M (unknown origin). The class given is ADME.
Sequence of Cytochrome P450 3A4 (P08684 whole entry): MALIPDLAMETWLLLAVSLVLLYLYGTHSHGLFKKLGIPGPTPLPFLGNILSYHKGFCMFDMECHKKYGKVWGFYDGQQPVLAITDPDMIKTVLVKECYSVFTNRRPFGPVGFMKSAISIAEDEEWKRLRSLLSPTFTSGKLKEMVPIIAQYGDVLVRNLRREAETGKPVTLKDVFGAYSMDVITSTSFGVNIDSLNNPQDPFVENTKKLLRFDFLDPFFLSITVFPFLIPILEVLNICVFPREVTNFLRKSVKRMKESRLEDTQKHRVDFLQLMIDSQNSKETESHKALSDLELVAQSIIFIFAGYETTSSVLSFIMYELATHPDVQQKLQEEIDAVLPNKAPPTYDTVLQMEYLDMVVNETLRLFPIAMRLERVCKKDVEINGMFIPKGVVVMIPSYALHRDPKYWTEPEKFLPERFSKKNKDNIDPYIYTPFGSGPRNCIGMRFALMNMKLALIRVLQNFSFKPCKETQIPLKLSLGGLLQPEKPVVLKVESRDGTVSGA
The nature of data set [18]: Selectivity index, ratio of IC50 for antiproliferative activity against human L02 cells assessed as inhibition of cell growth to IC50 for antiproliferative activity against human HepG2 cells assessed as inhibition of cell growth. It counts as toxicity, cell-based. Particulars: L02 cells versus HepG2 cells, read-out: Ratio IC50.
Data set [19] can be described thus: Antiproliferative activity against human L02 cells assessed as inhibition of cell growth incubated for 48 hrs by CCK-8 assay. It counts as toxicity, cell-based.

Sequence of Cytochrome P450 2C9 (P11712 whole entry): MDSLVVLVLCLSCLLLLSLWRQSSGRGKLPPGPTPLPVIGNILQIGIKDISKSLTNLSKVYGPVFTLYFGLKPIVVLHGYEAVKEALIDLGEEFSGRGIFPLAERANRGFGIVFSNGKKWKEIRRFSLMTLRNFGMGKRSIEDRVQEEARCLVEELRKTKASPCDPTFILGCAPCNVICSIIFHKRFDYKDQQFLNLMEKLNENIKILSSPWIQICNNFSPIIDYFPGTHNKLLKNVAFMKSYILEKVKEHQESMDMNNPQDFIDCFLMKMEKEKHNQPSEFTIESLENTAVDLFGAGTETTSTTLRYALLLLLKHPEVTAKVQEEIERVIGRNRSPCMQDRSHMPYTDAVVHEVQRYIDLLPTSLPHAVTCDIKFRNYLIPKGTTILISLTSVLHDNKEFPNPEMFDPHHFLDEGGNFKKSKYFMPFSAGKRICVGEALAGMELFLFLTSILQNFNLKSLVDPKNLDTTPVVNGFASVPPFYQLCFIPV

Broadly, the IC50 is the midpoint of a concentration-inhibition curve. Regarding `O=C(Nc1ccc(-c2nc(N3CCOCC3)nc(N3CCO[C@@H](CO)C3)n2)cc1)Nc1ccc2c(c1)COC2=O`, the IC50 was 234 nM in [1], 157 nM in data set [2] and 228 nM in data set [3].

With `CC(C)(C)OC(=O)N1C(=O)c2ccc(NC(=O)Nc3ccc(-c4nc(N5CCOCC5)nc(N5CCOCC5)n4)cc3)cc2C1=O`, in data set [4], the half-maximal inhibitory concentration (IC50) was 379 nM.

On to `O=C(Nc1ccc(-c2nc(N3CCOCC3)nc(N3C4CCC3CNC4)n2)cc1)Nc1ccc2c(c1)COC2=O`, for which the IC50 in data set [5] is 2270 nM; in data set [6] it was greater than 100000 nM; in data set [7], 12600 nM; in [8], 20 nM; in data set [9], 1130 nM; in data set [10], 11900 nM. In data set [11], the IC50 came out at 770 nM.

In the case of `C[C@H]1COCCN1c1nc(-c2ccc(NC(=O)Nc3ccc4c(c3)COC4=O)cc2)nc(N2C3CCC2COC3)n1`, the IC50 amounted to 1080 nM in data set [5]; 5670 nM in data set [6]; 6030 nM in [7]; 4 nM in [8]; 1740 nM in data set [9]; 3440 nM in data set [10]. For the same molecule, the IC50 in data set [11] worked out at 5050 nM.

`O=C(Nc1ccc(-c2nc(N3C4CCC3COC4)nc(N3C4CCC3COC4)n2)cc1)Nc1ccc2c(c1)COC2=O`: the 50% inhibitory concentration (IC50) in data set [12] is greater than 10000 nM; in [13], greater than 30000 nM; in [1], greater than 10000 nM; in data set [2] it was greater than 10000 nM; in data set [14], greater than 10000 nM; in data set [8], 1.2 nM. Moreover, the IC50 in [15], in data set [16], in data set [3] and in data set [17] was greater than 10000 nM in each case.

The molecule `O=C(Nc1ccc(-c2nc(N3CCOCC3)nc(N3CC4CCC(C3)O4)n2)cc1)Nc1ccc2c(c1)COC2=O` had an IC50 in data set [8] of 4.6 nM.

Turning to `O=C(Nc1ccc(-c2nc(N3CCOCC3)nc(N3C4CCC3COC4)n2)cc1)Nc1ccc2c(c1)COC2=O`, the 50% inhibitory concentration (IC50) in [5] was 230 nM; in [1], 1830 nM; in data set [6], 130 nM; in data set [2] it was 782 nM; in data set [7], 2150 nM; in [8] it was 1.7 nM. Moreover, the IC50 in [9] stood at 890 nM; in data set [3], 1940 nM; in [4], 354 nM; in [10], 4430 nM; in [11], 732 nM. Further, in data set [18], the selectivity ratio turned out to be 35.3. Moreover, the IC50 at 48 h in data set [19] was determined as 4590 nM.

Turning to `O=C(Nc1ccc(-c2nc(N3CCOCC3)nc(N3CCO[C@H](CO)C3)n2)cc1)Nc1ccc2c(c1)COC2=O`, the IC50 in [1] is 161 nM; in data set [2] it was 93 nM; in data set [3], 228 nM.

For `O=C(Nc1ccc(-c2nc(N3CCOCC3)nc(N3CCOCC3)n2)cc1)Nc1ccc2c(c1)COC2=O`, the IC50 in data set [1] turned out to be 248 nM; in data set [2] it was 129 nM; in data set [3], 162 nM.

In the case of `O=C(Nc1ccc(-c2nc(N3CCOCC3)nc(N3CCOCC3)n2)cc1)Nc1ccc2c(c1)CNC2=O`, the half-maximal inhibitory concentration (IC50) in [1] was 98.3 nM; in [2], 162 nM; in data set [3], 25.5 nM.

For `CC1OC(=O)c2cc(NC(=O)Nc3ccc(-c4nc(N5CCOCC5)nc(N5CCOCC5)n4)cc3)ccc21` (configuration not stated), the values for the IC50 in data set [8] and in data set [4] were 7.2 nM and 45.4 nM, respectively.

In turn, `CC(C)(C)OC(=O)N1CC2CCC(C1)N2c1nc(-c2ccc(NC(=O)Nc3ccc4c(c3)COC4=O)cc2)nc(N2CCOCC2)n1` displayed an IC50 in data set [8] of 147 nM.

Turning to `C[C@H]1COCCN1c1nc(-c2ccc(NC(=O)Nc3ccc4c(c3)COC4=O)cc2)nc(N2CCOCC2)n1`, the values for the IC50 in [1], in data set [2] and in data set [3] were 1320 nM, 754 nM and 725 nM, respectively.
